Reference: patent publication EP2204363A1, “New disubstituted phenylpiperidines/piperazines as modulators of dopamine neurotransmission” (NSAB, Filial af NeuroSearch Sweden AB, Sverige, priority 2004, dated 2005)
Where two headings read alike, the source gives them in different places.

Key:
[1] = system: DOPAC (3,4-dihydroxyphenylacetic acid) in the rat striatum; test: In vivo neurochemistry: increase of DOPAC in the rat striatum; conditions: for ED50: read-out: ED50 DOPAC
Description: After the behavioural activity sessions, the rats were decapitated and their brains rapidly taken out and put on an ice-cold petri-dish. The limbic forebrain, the striatum, the frontal cortex and the remaining hemispheral parts of each rat were dissected and frozen. Each brain part was subsequently analyzed with respect to its content of monoamines and their metabolites.
The monoamine transmitter substances (NA (noradrenaline), DA (dopamine), 5-HT (serotonin)) as well as their amine (NM (normethanephrine), 3-MT (3-methoxytyramine)) and acid (DOPAC (3,4-dihydroxyphenylacetic acid), 5-HIAA (5-hydroxyindoleacetic acid), HVA (homovanillic acid)) metabolites are quantified in brain tissue homogenates by HPLC separations and electrochemical detection
The analytical method is based on two chromatographic separations dedicated for amines or acids. Two chromatographic systems share a common auto injector with a 10-port valve and two sample loops for simultaneous injection on the two systems. Both systems are equipped with a reverse phase column (Luna C18(2), dp […], 50*2mm i.d., Phenomenex) and electrochemical detection is accomplished at two potentials on glassy carbon electrodes (MF-1000, Bioanalytical Systems, Inc.). The column effluent is passed via a T-connection to the detection cell or to a waste outlet. This is accomplished by two solenoid valves, which block either the waste or detector outlet. By preventing the chromatographic front from reaching the detector, better detection conditions are achieved. […] Detection potentials relative to Ag/AgCl reference are 0.45 and 0.60V. […] Detection potentials relative to Ag/AgCl reference are 0.45 and 0.65V.
ED50 values for the increase of DOPAC in striatum are calculated by curve fitting.

[2] = system: levels of dopamine and norepinephrine in the cortex; test: Microdialysis in awake and freely moving rats (cortex); type: in vivo; conditions: percent of control in relation to baseline
[3] = Metabolic stability in rat liver microsomes; type: in vitro ADME; conditions: pH 7.4, 37 °C, NADPH, fraction of test compound eliminated after 15 minutes, read-out: turnover at 15 minutes
Experimental: The protein precipitation was then removed by rejecting the pellet after centrifugation at 10.000 g for 10 minutes (Heraeus, Biofuge fresco) in 4°C. The test compound was analysed using HPLC-MS (Hewlett-Packard 1100MSD Series) with a Zorbax SB-C18 column (2.1*150 mm, 5 µm) using 0.03% formic acid and acetonitrile as mobile phase (gradient) or a Zorbax Eclipse XDB-C18 (3*75 mm, 3.5µm) using 0.03% acetic acid and acetonitrile as mobile phase (gradient).

[4] = system: drug-naive rats; test: In vivo behaviour: locomotor activity in drug-naive rats; conditions: ± SEM
Description: (§1) Photobeam sensors were spaced 2.5 cm apart.

[5] = system: MK-801 pre-treated rats; test: In vivo behaviour: locomotor activity in MK-801 pre-treated rats; conditions: MK-801 0.7 mg/kg i.p. 90 minutes before test compound, 30 to 60 minutes after administration, ± SEM
Description: as §1

[6] = Activity of compounds of Formula 1 (test not specified)
[7] = sc, estimated ED50 on increase of DOPAC in rat striatum after systemic administration (s.c.), maximal effects limited to 350 - 400% of control, range covers 95% of fits
[8] = drug-naive habituated rats, 11 µmol/kg, recorded between 30 and 60 minutes
[9] = drug-naive habituated rats, 33 µmol/kg, recorded between 30 and 60 minutes
[10] = drug-naive habituated rats, 100 µmol/kg, recorded between 30 and 60 minutes
[11] = drug-naive rats, 11 µmol/kg, recorded for 60 minutes
[12] = drug-naive rats, 33 µmol/kg, recorded for 60 minutes
[13] = drug-naive rats, 100 µmol/kg, recorded for 60 minutes

CCCN1CCC(c2ccc(F)c(C(F)(F)F)c2)CC1 [Example 43 of WO01/46146, reference compound]
ED50 ([1]; estimated ED50 on increase of DOPAC in rat striatum, maximal effects set to 200% of control, range covers 95% of fits): 35 µmol/kg

CN1CCN2c3ncccc3Cc3ccccc3C2C1 (stereo not drawn) [mirtazapine, reference compound]
extracellullar norepinephrine and dopamine in the cortex ([2]; Figure 1: Remeron 10mg/kg s.c., cortex): increase predominantly extracellullar norepinephrine and dopamine in the cortex

CCN1CCC(c2cccc(S(C)(=O)=O)c2)CC1 [Example 12 of WO01/46145, reference compound]
ED50 [1, 7]: 154 µmol/kg

CCCN1CCC(c2cccc(S(C)(=O)=O)c2F)CC1 [Example 1, 4-[2-FLUORO-3-(METHYLSULFONYL)PHENYL]-1-PROPYLPIPERIDINE]
ED50 [1, 7]: 28 µmol/kg
metabolised at 0.25 h [3]: 3%
Locomotor activity [4, 8]: 1708 ± 922 counts/30 min
Locomotor activity [4, 9]: 1337 ± 141 (P=0.001) counts/30 min
Locomotor activity [4, 10]: 1365 ± 460 (P=0.057) counts/30 min
Locomotor activity [4, 11]: 9500 ± 617 counts/60 min
Locomotor activity [4, 12]: 7371 ± 992 counts/60 min
Locomotor activity [4, 13]: 8103 ± 1047 counts/60 min
Locomotor activity, MK + example ([5]; 33 µmol/kg): 29636 ± 10019 (P=0.08) counts/30 min

CCN1CCC(c2cccc(S(C)(=O)=O)c2F)CC1 [Example 2, 1-ETHYL-4-[2-FLUORO-3-(METHYLSULFONYL)PHENYL]-PIPERIDINE]
metabolised at 0.25 h [3]: 1%
levels of dopamine and norepinephrine in the cortex ([2]; Figure 2: 50 mol/kg s.c. (so in the source), pf. cortex): elevate the levels of dopamine and norepinephrine in the cortex

CCCN1CCC(c2cccc(S(C)(=O)=O)c2C#N)CC1 [Example 15, 2-(METHYLSULFONYL)-6-(1-PROPYLPIPERIDIN-4-YL)BENZONITRILE]
ED50 [1, 7]: 28 µmol/kg

CCCN1CCC(c2cccc(C(F)(F)F)c2OC)CC1 [Example 8, 4-[2-METHOXY-3-(TRIFLUOROMETHYL)PHENYL]-1-PROPYLPIPERIDINE]
metabolised at 0.25 h [3]: 49%

CCCN1CCC(c2cccc(C(F)(F)F)c2C#N)CC1 [Example 7, 2-(1-PROPYLPIPERIDIN-4-YL)-6-(TRIFLUOROMETHYL)BENZONITRILE]
ED50 [1, 7]: 9.7 µmol/kg
metabolised at 0.25 h [3]: 22%
Locomotor activity [4, 11]: 7008 ± 700 counts/60 min
Locomotor activity [4, 12]: 4694 ± 986 counts/60 min
Locomotor activity [4, 13]: 2829 ± 358 counts/60 min

CCCN1CCC(c2cccc(S(C)(=O)=O)c2C)CC1 [Example 4, 4-[2-METHYL-3-(METHYLSULFONYL)PHENYL]-1-PROPYLPIPERIDINE]
ED50 [1, 7]: 58 µmol/kg
metabolised at 0.25 h [3]: 4%
Locomotor activity [4, 11]: 8972 ± 1124 counts/60 min
Locomotor activity [4, 12]: 9023 ± 1415 counts/60 min
Locomotor activity [4, 13]: 4473 ± 924 counts/60 min

CCCN1CCN(c2cccc(Cl)c2Cl)CC1 [Example 11, 1-(2,3-DICHLOROPHENYL)-4-PROPYLPIPERAZINE]
ED50 ([1]; Rattus norvegicus, sc): 3.5 µmol/kg
Locomotor activity [4, 11]: 5149 ± 374 counts/60 min
Locomotor activity [4, 12]: 4032 ± 828 counts/60 min
Locomotor activity [4, 13]: 3299 ± 637 counts/60 min

CCCN1CCN(c2cccc(C#N)c2C(F)(F)F)CC1 [Example 14, 3-(4-PROPYLP I PE RAZI N-1-YL)-2-(TRI FLUORO-M ETHYL)B ENZON ITRI LE]
ED50 ([1]; Rattus norvegicus, sc): 2.4 µmol/kg

CCCN1CCC(c2cccc(S(C)(=O)=O)c2Cl)CC1 [Example 3, 4-[2-CHLORO-3-(METHYLSULFONYL)PHENYL]-1-PROPYLPIPERIDINE]
ED50 [1, 7]: 9.9 µmol/kg
Locomotor activity [4, 11]: 6078 ± 605 counts/60 min
Locomotor activity [4, 12]: 3023 ± 246 counts/60 min
Locomotor activity [4, 13]: 1327 ± 299 counts/60 min
Locomotor activity, MK + example ([5]; 100 µmol/kg (footnote 1)): 4911 ± 2953^1 (P=0.08) counts/30 min

CCCN1CCC(c2cccc(C#N)c2C(F)(F)F)CC1 [Example 13, 3-(1-PROPYLPIPERIDIN-4-YL)-2-(TRIFLUORO-METHYL)BENZONITRILE]
Locomotor activity [4, 8]: 960 ± 710 counts/30 min
Locomotor activity [4, 9]: 2870 ± 613 (P=0.008) counts/30 min
Locomotor activity [4, 10]: 4366 ± 1389 (P=0.030) counts/30 min

CCCN1CCC(c2cccc(C(F)(F)F)c2)CC1 [reference compound]
ED50 DOPAC ([1]; estimated ED50 on increase of DOPAC in rat striatum after systemic administration (s.c.), maximal effects limited to 350 - 400% of control, range covers 95% of fits): 84 (47 - 110) µmol/kg

CCCN1CCC(c2ccc(Cl)c(C(F)(F)F)c2)CC1 [Example 9 of WO01/46146, reference compound]
ED50 ([1]; Rattus norvegicus): 40 µmol/kg

COCCN1CCN(c2cccc(C(F)(F)F)c2F)CC1 [Example 10, 1-[2-FLUORO-3-(TRIFLUOROMETHYL)PHENYL]-4-(2-METHOXYETHYL)PIPERAZINE]
ED50 ([1]; Rattus norvegicus, sc): 6.2 µmol/kg

CCCN1CCN(c2cccc(C(F)(F)F)c2F)CC1 [Example 9, 1-[2-FLUORO-3-(TRIFLUOROMETHYL)PHENYL]-4-PROPYLPIPERAZINE]
ED50 ([1]; Rattus norvegicus, sc): 1.9 µmol/kg
Locomotor activity [4, 11]: 3721 ± 242 counts/60 min
Locomotor activity [4, 12]: 3518 ± 435 counts/60 min
Locomotor activity [4, 13]: 4265 ± 758 counts/60 min
Locomotor activity, MK + example ([5]; 11 µmol/kg (footnote 2)): 5916± 1918^2 (P=0.002) counts/30 min

CCCN1CCC(c2cccc(S(C)(=O)=O)c2C(F)(F)F)CC1 [4-[3-(methylsulfonyl)-2-(trifluoromethyl)phenyl]-1-propylpiperidine]
activity [6]: inactive
